The values that follow come from EPA's ToxRefDB 2.

Data set [1] concerns rat. To be noted: Carcinogenicity, fischer, Oral, Gavage/Intubation, dose end: 103 week, group: systemic.
In data set [2] the test system is rat. To be noted: Subchronic oral toxicity in rodents, fischer, Gavage/Intubation, dose end: 13 week, group: systemic.
Data set [3] concerns rat. Particulars: Sub-acute repeat dose toxicity, fischer, Oral, Gavage/Intubation, dose end: 14 day, group: systemic.
Data set [4] deals with mouse. Particulars: Carcinogenicity; b6c3f1; Oral; Gavage/Intubation; dose end: 103 week; group: systemic; systemic / pathology microscopic / stomach / hyperplasia + systemic / pathology microscopic / stomach / inflammation.
The subject of data set [5] is rat. Particulars: Prenatal developmental toxicity study, sprague dawley, Oral, Gavage/Intubation, dose end: 20 GD.
Data set [6] relates to mouse. To be noted: Sub-acute repeat dose toxicity; b6c3f1; Oral; Gavage/Intubation; dose end: 14 day; group: systemic; systemic / in life observation / mortality / mortality.
Data set [7] has as its system rat. Particulars: Fertility (Segment I); sprague dawley; Oral; Gavage/Intubation; dose end: 1 generation; group: parental; systemic / in life observation / body weight / body weight gain.
Data set [8] has as its system rat. To be noted: Sub-acute repeat dose toxicity, sprague dawley, Oral, Gavage/Intubation, dose end: 36 day, group: systemic.
The test system of data set [9] is mouse. To be noted: Carcinogenicity, Oral, Feed, dose end: 720 day, group: systemic.
Setting [10] is: systemic / pathology microscopic / liver / fibrosis + systemic / pathology microscopic / liver / hyperplasia + systemic / pathology ….
Setting [11] is: systemic / pathology microscopic / liver / pigmentation.
Setting [12] is: systemic / pathology microscopic / liver / basophilic focus + systemic / pathology microscopic / liver / hypertrophy + systemic / pathology ….
[13] abbreviates: systemic / pathology gross / intestine large / enlarged + systemic / pathology gross / liver / mottling.
The mark [14] stands for this setting: group: developmental, developmental / developmental malformation / bone / ossification sites + systemic / in life observation / body weight / fetal weight.
The mark [15] stands for this setting: group: maternal, systemic / in life observation / body weight / body weight gain + systemic / in life observation / food consumption / food consumption + ….
The mark [16] stands for this setting: systemic / in life observation / body weight / body weight gain + systemic / in life observation / water consumption / water consumption.
[17] abbreviates: systemic / in life observation / water consumption / water consumption.
Setting [18] is: systemic / hematology / [other] / [other] + systemic / in life observation / body weight / body weight gain + systemic / in life observation….
Where [19] appears, read: systemic / in life observation / mortality / mortality.

Consider `C=CCOC(=O)c1ccccc1C(=O)OCC=C` [Diallyl phthalate], for which the LOAEL in the data set on rat [1] (setting [10]) was 100 mg/kg/day; in the data set with rat [2] (setting [12]), 200 mg/kg/day; in the data set on rat [3] (systemic / pathology gross / liver / mottling + systemic / pathology gross / liver / discolored + systemic / pathology gross / liver / …) it was 200 mg/kg/day; with mouse [4], 150 mg/kg/day; with rat [5] (setting [14]), > 250 mg/kg/day; in the data set on rat [5] (setting [15]), > 250 mg/kg/day. Besides, in the data set on mouse [6], the LOAEL is > 600 mg/kg/day. The no-observed-adverse-effect level (NOAEL) with rat [1] (setting [10]) is 50 mg/kg/day; in the data set on rat [2] (systemic / in life observation / clinical signs / defecation (diarrhea) + systemic / in life observation / clinical signs / emaciation + …), 100 mg/kg/day; with rat [3] (systemic / pathology gross / liver / discolored + systemic / pathology gross / liver / enlarged + systemic / pathology gross / liver / …), 100 mg/kg/day; in the data set on mouse [4], < 150 mg/kg/day; in the data set on rat [5] (setting [14]) it was ≥ 250 mg/kg/day; in the data set on rat [5] (setting [15]) it was ≥ 250 mg/kg/day. The NOAEL with mouse [6] is ≥ 600 mg/kg/day. The LEL with rat [1] (setting [11]) was found to be 50 mg/kg/day; in the data set on rat [2] (setting [12]) it was 50 mg/kg/day; in the data set on rat [3] (setting [13]) it was 50 mg/kg/day; in the data set on mouse [4], 150 mg/kg/day; with rat [5] (group: developmental, systemic / in life observation / body weight / fetal weight) it was 200 mg/kg/day; in the data set with rat [5] (group: maternal, systemic / pathology gross / liver / discolored + systemic / pathology gross / liver / mottling) it was 150 mg/kg/day. In the data set on mouse [6], this compound yielded an LEL of 400 mg/kg/day. Moreover, the NEL in the data set on rat [1] (setting [11]) was < 50 mg/kg/day; in the data set with rat [2] (setting [12]) it was 25 mg/kg/day; in the data set on rat [3] (setting [13]), < 50 mg/kg/day; with mouse [4], < 150 mg/kg/day; in the data set on rat [5] (setting [14]) it was 150 mg/kg/day; in the data set with rat [5] (setting [15]), 100 mg/kg/day. In the data set with mouse [6], this compound returned an NEL of 200 mg/kg/day.
Regarding `CS(=O)(=O)N[C@@H](CCCCN)C(=O)NC[C@H](CC1(C(=O)N[C@@H](Cc2ccc(O)cc2)C(=O)O)CCCC1)C(=O)O` [Sampatrilat], the LEL amounted to 200 mg/kg/day in the data set with rat [7], 30 mg/kg/day in the data set with rat [8] (setting [17]) and 40 mg/kg/day in the data set on mouse [9] (setting [19]). In addition, the LOAEL in the data set on rat [7] is > 1000 mg/kg/day; with rat [8] (setting [16]) it was > 300 mg/kg/day; with mouse [9] (setting [18]), > 600 mg/kg/day. The values for the NEL in the data set with rat [7], in the data set with rat [8] (setting [17]) and in the data set with mouse [9] (setting [19]) were 50 mg/kg/day, < 30 mg/kg/day and < 40 mg/kg/day, respectively. Further, the NOAEL was ≥ 1000 mg/kg/day in the data set on rat [7], ≥ 300 mg/kg/day with rat [8] (setting [16]) and ≥ 600 mg/kg/day with mouse [9] (setting [18]).

Broadly, the LOAEL is the lowest tested level that showed an adverse finding. Usually NOAEL stands for the highest dose or exposure tested at which no adverse effect was seen.
